# Experimental data from article PMC12621183 (Journal of Medicinal Chemistry, 2025).
# “Also recorded” adds a separate entry of the source. Where two headings read alike, the source gives them in different places.
# How the values were obtained:
# recombinant ABL1 kinase = recombinant ABL1 kinase (Homo sapiens, UniProt P00519); test: ABL1 kinase assay (ADP-Glo); assay type: biochemical
# Procedure: Kinase inhibition was assessed using luminescent ADP-Glo–based assays. […] No-enzyme and no-compound reactions served as 0% and 100% activity controls, respectively. Luminescence was quantified using a Tecan Spark plate reader, and kinase activity or inhibition was calculated relative to controls.
# K562 wild-type cells [1] = test: cells; assay type: cell-based; conditions: for apoptosis induction: K562 cells, 72-h exposure; for CC50: K562 wild-type, 72 h, Annexin V/7-AAD, read-out: LC50 (the source's name)
# Procedure: (§1) K562 wild-type, K562/DOX, OCI-AML3, HaCaT and healthy B cell cytotoxicity screening. Healthy B-lymphocytes were obtained from healthy donor blood samples using density gradient centrifugation with Histopaque.
# (§2) All cells were maintained at 37 °C in atmospheric conditions of 5% CO2. Cytotoxicity screening was carried out in triplicate with these cells at a cell density of 0.5 × 10^6 cells/mL. Cells were treated with test compounds at a range of concentrations to establish LC50 values. Cells were incubated with the compounds for 72 h before being harvested by centrifugation. Subsequently, cells were labeled with Annexin V and 7-AAD (bioscience) in accordance with the manufacturer’s instructions. Following staining with FITC-labeled annexin V and 7-AAD, samples were analyzed using CytExpert software on a CytoFLEX LX flow cytometer (Beckman Coulter) to determine relative levels of cell death in the sample. Prism 10 software was then used to analyze the data to obtain dose–response curves.
# K562/DOX cells [2] = test: cells; assay type: cell-based
# Procedure: as §1, §2
# [3] = LC-MS/MS accumulation assay in P-gp-overexpressing K562/DOX cells; assay type: in vitro ADME, human; conditions: human; K562 wild-type vs K562/DOX
# Procedure: (§3) K562 wild-type and K562/DOX cells were seeded in 6-well plates at a density of 1 × 10^6 cells per well in a final volume of 2 mL and cultured for 24 h at 37 °C in a humidified incubator with 5% CO2. The cells were then treated with 50 μM of the drug and incubated for 2 h. After incubation, the cells were harvested, washed with ice-cold phosphate-buffered saline (PBS), and pelleted. Intracellular drug was extracted by lysing the cells with 400 μL of methanol, aided by sonication. The lysates were centrifuged at 7200 rcf, and the supernatant was collected for analysis by LC-MS/MS. Drug quantification was performed using an external calibration method. Stock solutions of each compound were prepared in methanol and used to generate calibration standards in methanol/DMSO (70:30, %v/v). Experimental samples were diluted in the same solvent mixture prior to analysis.
# (§4) Chromatographic separation was performed on a Shimadzu Nexera XR ultrahigh-performance liquid chromatography (UHPLC) system comprising two LC-20AD pumps, a DGC degasser, a SIL-30AC autosampler, a CBM-20A controller, and a column oven. The system was fitted with an Ascentis Express C18 column (5 cm × 2.1 mm, 2.7 μm particle size). Elution was performed with a binary solvent system: eluent A, 0.1% formic acid in water; eluent B, 0.1% formic acid in methanol. The gradient program was as follows: 5% B for 0.5 min, increased to 40% B over 3.5 min, increased to 95% B over 2 min, held at 95% B for 1.5 min, then returned to 5% B at 8 min and held for 3 min for re-equilibration. The mobile phase flow rate was 0.21 mL/min. The column oven was maintained at 40 °C and the autosampler at 10 °C.
# (§5) The UHPLC system was coupled to a Shimadzu 8060 triple quadrupole mass spectrometer with an electrospray ionization (ESI) source operating in positive ion mode. […] Multiple reaction monitoring (MRM) transitions (Table S2) were used for quantification with a dwell time of 100 ms per transition. Data were normalized against standards prepared using the initial drug concentration in the lysis solution. Statistical significance of differences in intracellular accumulation between drugs and cell lines was assessed using the nonparametric Mann–Whitney test (n = 6).
# K562/DOX cells [4] = test: as above; assay type: in vitro ADME, human; conditions: for increase in intracellular concentration: K562/DOX relative to K562 wild-type; for intracellular accumulation (concentration): K562/DOX, 50 μM drug, 2 h; for higher intracellular concentration relative to imatinib: within K562/DOX cells
# Procedure: as §3, §4, §5
# PDGFRα (D842Y) = biological target: T1, PDGFRα (D842Y) (Homo sapiens, UniProt P16234, D842Y); test: PDGFRα (D842Y) Chemi-Verse kinase assay; assay type: biochemical; conditions: compared with imatinib
# T1 construct: purchased Cambridge Biosciences (Chemi-Verse kinase assays)
# Procedure: (§6) Reactions were set up under the supplier’s recommended conditions, with recombinant kinases (5 ng/μL final), peptide substrates, and ATP in kinase assay buffer. Test inhibitors or vehicle were added, and reactions were incubated at 30 °C for 45 min. ADP formation was quantified with ADP-Glo detection, and percent inhibition was determined relative to DMSO controls.
# K562 wild-type cells [5] = test: LC-MS/MS accumulation assay in K562 wild-type cells; assay type: in vitro ADME, human; conditions: 50 μM drug, 2 h
# Procedure: as §3, with “analysis. […]” for “analysis.”
# The UHPLC system was coupled to a Shimadzu 8060 triple quadrupole mass spectrometer with an electrospray ionization (ESI) source operating in positive ion mode. […] Multiple reaction monitoring (MRM) transitions (Table S2) were used for quantification with a dwell time of 100 ms per transition. […] Statistical significance of differences in intracellular accumulation between drugs and cell lines was assessed using the nonparametric Mann–Whitney test (n = 6).
# HaCaT cells = assay type: cell-based; conditions: ratio of IC50 in HaCaT cells to LC50 in K562 wild-type
# Procedure: HaCaT cells were seeded in a 96-well plate in DMEM at a density of 3 × 10^3 cells/well and incubated for 24 h at 37 °C in a humidified incubator with 5% CO2. The cells were then treated with a series of drug concentrations (0.1–100 μM) and incubated for a further 72 h at 37 °C. After treatment, the media in each well, including control wells, was replaced with MTT reagent (0.1 mg/well in media) and incubated for 4 h at 37 °C. Following incubation, the MTT reagent was carefully removed, and 200 μL of DMSO was added to each well to solubilize the formazan crystals. The plate was shaken for 10 min, and the optical density (OD) was measured at 570 nm using a microplate reader.
# CSF-1R = biological target: T2, CSF-1R (Homo sapiens, UniProt P07333); test: CSF-1R Chemi-Verse kinase assay; assay type: biochemical; conditions: compared with imatinib
# T2 construct: purchased Cambridge Biosciences (Chemi-Verse kinase assays)
# Procedure: as §6
# healthy B-lymphocytes = test: Cytotoxicity in healthy B-lymphocytes (Annexin V/7-AAD); assay type: cell-based; conditions: concentrations up to 100 μM
# Procedure: K562 wild-type, K562/DOX, OCI-AML3, HaCaT and healthy B cell cytotoxicity screening. Healthy B-lymphocytes were obtained from healthy donor blood samples using density gradient centrifugation with Histopaque. Informed consent was obtained from all human participants in this study and experiments were performed in accordance with ethical approval granted by the local research ethics committee (17/SW/0263). […]
# All cells were maintained at 37 °C in atmospheric conditions of 5% CO2. […] Following staining with FITC-labeled annexin V and 7-AAD, samples were analyzed using CytExpert software on a CytoFLEX LX flow cytometer (Beckman Coulter) to determine relative levels of cell death in the sample. […]
# K562/DOX cells [6] = test: Effect of P-gp activity on apoptosis using verapamil (K562/DOX); assay type: cell-based, human; conditions: for Fold change in LC50 (+/- verapamil): efflux factor; for effect of P-gp inhibition by verapamil on cytotoxicity: with and without verapamil
# Procedure: Cells were seeded onto 96-well plates at a concentration of 0.5 × 10^6 cells/well in a final volume of 200 μL. […] After a 72-h incubation period with the test compounds, both with and without the inhibitor, apoptotic cells were evaluated using the Annexin V assay to determine the extent of apoptosis.
# [7] = Homo sapiens, K562, 72 h, read-out: LC50, K562/DOX, 72 h, Annexin V/7-AAD
# recombinant ABL1 kinase, sequence (P00519 whole entry): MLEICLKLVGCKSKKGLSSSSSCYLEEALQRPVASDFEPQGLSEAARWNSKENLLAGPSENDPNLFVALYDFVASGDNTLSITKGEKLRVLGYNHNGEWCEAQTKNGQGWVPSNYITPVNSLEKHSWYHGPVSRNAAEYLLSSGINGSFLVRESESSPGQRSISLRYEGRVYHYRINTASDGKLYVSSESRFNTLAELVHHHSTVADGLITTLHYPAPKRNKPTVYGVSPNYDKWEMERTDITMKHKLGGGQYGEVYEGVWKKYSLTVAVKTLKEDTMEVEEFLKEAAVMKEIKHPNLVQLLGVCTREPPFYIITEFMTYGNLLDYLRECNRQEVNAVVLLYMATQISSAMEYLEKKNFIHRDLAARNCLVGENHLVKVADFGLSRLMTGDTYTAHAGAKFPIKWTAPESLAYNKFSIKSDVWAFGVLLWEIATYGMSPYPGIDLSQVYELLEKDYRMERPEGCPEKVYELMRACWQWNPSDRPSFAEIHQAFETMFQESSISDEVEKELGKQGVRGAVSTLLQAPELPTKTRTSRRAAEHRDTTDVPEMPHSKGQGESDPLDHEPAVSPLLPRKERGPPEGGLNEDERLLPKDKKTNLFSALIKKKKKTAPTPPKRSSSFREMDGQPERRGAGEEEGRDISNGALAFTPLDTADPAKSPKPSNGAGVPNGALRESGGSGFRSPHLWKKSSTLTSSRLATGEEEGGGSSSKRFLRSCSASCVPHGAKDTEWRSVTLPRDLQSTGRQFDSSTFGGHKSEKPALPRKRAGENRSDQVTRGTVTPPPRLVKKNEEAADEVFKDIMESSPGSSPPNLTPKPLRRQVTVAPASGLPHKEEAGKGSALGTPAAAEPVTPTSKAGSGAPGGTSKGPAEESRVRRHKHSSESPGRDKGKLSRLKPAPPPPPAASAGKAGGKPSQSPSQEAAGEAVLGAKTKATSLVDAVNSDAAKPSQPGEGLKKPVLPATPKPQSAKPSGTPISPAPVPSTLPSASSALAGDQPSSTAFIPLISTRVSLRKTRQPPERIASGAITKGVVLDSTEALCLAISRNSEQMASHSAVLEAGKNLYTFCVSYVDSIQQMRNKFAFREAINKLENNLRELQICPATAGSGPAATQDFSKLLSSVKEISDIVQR
# T2 sequence (P07333 20-972): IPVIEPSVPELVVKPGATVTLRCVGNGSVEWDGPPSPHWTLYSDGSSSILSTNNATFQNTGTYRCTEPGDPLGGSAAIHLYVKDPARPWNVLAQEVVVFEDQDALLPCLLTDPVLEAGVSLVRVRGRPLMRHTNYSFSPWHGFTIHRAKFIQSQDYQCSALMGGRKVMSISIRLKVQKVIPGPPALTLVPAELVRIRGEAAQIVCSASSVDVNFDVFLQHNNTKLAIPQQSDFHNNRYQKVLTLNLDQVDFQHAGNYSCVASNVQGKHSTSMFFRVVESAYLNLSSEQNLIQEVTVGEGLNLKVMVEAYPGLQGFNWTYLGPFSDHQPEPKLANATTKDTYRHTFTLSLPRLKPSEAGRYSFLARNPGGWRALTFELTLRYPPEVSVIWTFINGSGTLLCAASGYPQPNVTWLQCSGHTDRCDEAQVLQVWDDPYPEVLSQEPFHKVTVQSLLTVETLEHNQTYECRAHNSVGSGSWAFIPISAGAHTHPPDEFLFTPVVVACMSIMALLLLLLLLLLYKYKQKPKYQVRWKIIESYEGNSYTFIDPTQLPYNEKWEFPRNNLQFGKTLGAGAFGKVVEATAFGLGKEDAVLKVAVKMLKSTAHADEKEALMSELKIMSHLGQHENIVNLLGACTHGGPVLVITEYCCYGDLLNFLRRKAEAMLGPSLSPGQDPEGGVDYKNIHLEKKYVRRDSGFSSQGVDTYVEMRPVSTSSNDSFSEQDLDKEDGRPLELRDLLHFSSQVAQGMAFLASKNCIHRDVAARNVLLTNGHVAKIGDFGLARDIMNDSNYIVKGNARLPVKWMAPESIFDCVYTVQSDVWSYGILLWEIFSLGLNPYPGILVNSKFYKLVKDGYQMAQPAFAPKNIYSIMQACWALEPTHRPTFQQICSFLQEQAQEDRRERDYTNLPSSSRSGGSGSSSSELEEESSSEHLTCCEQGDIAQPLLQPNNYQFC
# T1 sequence (P16234 24-1089 D842Y): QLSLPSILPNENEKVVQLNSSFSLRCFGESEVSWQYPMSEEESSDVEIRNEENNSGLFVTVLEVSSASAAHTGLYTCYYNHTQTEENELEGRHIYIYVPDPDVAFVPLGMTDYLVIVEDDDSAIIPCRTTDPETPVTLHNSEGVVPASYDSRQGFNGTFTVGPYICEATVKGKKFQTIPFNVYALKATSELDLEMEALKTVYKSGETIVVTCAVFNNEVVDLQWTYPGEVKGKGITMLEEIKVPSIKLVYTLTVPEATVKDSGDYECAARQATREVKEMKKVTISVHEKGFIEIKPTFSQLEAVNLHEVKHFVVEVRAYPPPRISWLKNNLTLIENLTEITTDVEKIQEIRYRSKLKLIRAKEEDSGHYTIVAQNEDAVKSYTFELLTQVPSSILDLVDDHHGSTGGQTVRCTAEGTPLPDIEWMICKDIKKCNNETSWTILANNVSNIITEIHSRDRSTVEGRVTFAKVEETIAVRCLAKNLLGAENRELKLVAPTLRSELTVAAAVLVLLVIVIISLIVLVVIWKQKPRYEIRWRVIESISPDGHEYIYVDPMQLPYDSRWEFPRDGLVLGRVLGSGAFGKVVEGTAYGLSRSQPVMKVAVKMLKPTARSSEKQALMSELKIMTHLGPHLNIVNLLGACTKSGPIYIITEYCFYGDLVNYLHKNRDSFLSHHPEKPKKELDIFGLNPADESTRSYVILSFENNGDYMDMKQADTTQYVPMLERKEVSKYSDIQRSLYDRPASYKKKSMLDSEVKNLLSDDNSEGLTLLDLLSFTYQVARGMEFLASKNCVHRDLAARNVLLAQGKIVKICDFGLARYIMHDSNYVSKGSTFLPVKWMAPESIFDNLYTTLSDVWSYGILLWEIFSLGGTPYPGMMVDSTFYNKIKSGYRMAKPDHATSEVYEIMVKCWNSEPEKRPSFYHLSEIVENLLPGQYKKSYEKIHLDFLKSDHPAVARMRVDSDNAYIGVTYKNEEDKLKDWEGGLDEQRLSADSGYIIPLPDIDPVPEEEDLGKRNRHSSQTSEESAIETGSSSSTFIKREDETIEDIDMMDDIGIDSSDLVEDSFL
Compound,"%Kinase inhibition (recombinant ABL1 kinase; 10 μM, 40 min incubation) [%]",apoptosis induction (K562 wild-type cells [1]),CC50 (K562 wild-type cells [1]) [µM],"CC50 (K562/DOX cells [2]; K562/DOX, 72 h, Annexin V/7-AAD, read-out: LC50 (the source's name)) [µM]","inhibition at 10 µM (recombinant ABL1 kinase; 10 μM, 40 min incubation) [%]","CC50 (K562 wild-type cells [1]; Homo sapiens, K562, 72 h) [µM]",CC50 (K562/DOX cells [2]; [7]) [µM],"efflux ratio at 2 h, 50 μM [3]",increase in intracellular concentration (K562/DOX cells [4]) [%],intracellular accumulation (concentration) (K562/DOX cells [4]) [µg/mL],higher intracellular concentration relative to imatinib (K562/DOX cells [4]),inhibitory activity against PDGFRα (D842Y) (PDGFRα (D842Y)),intracellular accumulation (concentration) (K562 wild-type cells [5]) [µg/mL],ABL1 inhibition (recombinant ABL1 kinase),Toxicity Index (IC50 HaCaT/LC50 K562) (HaCaT cells),inhibitory activity against CSF-1R (CSF-1R),toxicity in nonmalignant B-lymphocytes (healthy B-lymphocytes),Fold change in LC50 (+/- verapamil) (K562/DOX cells [6]),effect of P-gp inhibition by verapamil on cytotoxicity (K562/DOX cells [6]),"CC50 (K562/DOX cells [2]; human, 72 h) [µM]"
4-Methyl-3-((4-(pyridin-3-yl)pyrimidin-2-yl)amino)phenyl-4-((4-(pyrimidin-2-yl)piperidin-1-yl)methyl)benzamide [Compound 11],26.55,induced apoptosis in a dose-dependent manner,24.2 ± 12.2,> 50,–,–,–,–,–,–,–,–,–,–,–,–,–,–,–,–
Cc1ccc(NC(=O)c2ccc(CN3CCC(c4ccccc4)CC3)cc2)cc1Nc1nccc(-c2cccnc2)n1 [Compound 7],–,inactive,–,–,37.7,> 50,> 50,–,–,–,–,–,–,–,–,–,–,–,–,–
"Cc1ccc(NC(=O)c2ccc(CN3CCC(c4ccc(N)cc4)CC3)cc2)cc1Nc1nccc(-c2cccnc2)n1 [Compound 8, 4-((4-(4-Aminophenyl)piperidin-1-yl)methyl)-N-(4-methyl-3-((4-(23yridine-3-yl)pyrimidin-2-yl)amino)phenyl)benzamide]",–,induced apoptosis in a dose-dependent manner,–,–,40,2.29,5.29,0.98,2.5,14.49,approximately 2.6 fold,broadly comparable to imatinib,14.14,moderate inhibition,3.4,broadly comparable to imatinib,No significant toxicity; also recorded: no significant cytotoxicity,1.3,minimal changes; also recorded: reversal of resistance was not significant,–
Cc1ccc(NC(=O)c2ccc(CN3CCC(c4ccccn4)CC3)cc2)cc1Nc1nccc(-c2cccnc2)n1 [Compound 9],–,induced apoptosis in a dose-dependent manner,21.8,–,32.2,21.8 ± 11,20.3 ± 10.3,0.87,14.4,26.73,~4.8 fold,broadly comparable to imatinib,23.36,relatively weak inhibition,–,broadly comparable to imatinib,–,4.1,reversal of resistance was not significant,20.3
"Cc1ccc(NC(=O)c2ccc(CN3CCC(c4ccncc4)CC3)cc2)cc1Nc1nccc(-c2cccnc2)n1 [Compound 10, 4-Methyl-3-((4-(pyridin-3-yl)pyrimidin-2-yl)amino)phenyl-4-((4-(pyridin-4-yl)piperidin-1-yl)methyl)benzamide]",–,inactive,–,–,39.6,> 50,37.5 ± 10.1,–,–,–,–,–,–,–,–,–,–,–,–,37.5
"Cc1ccc(NC(=O)c2ccc(CN3CCC(n4cccc4)CC3)cc2)cc1Nc1nccc(-c2cccnc2)n1 [Compound 12, 4-((4-(1H-Pyrrol-1-yl)piperidin-1-yl)methyl)-N-(4-methyl-3-((4-(pyridin-3-yl)pyrimidin-2-yl)amino)phenyl)benzamide]",–,inactive,–,–,47.4,> 50,–,–,–,–,–,–,–,–,–,–,–,–,–,–
"Cc1ccc(NC(=O)c2ccc(CN3CCC(n4ccnc4)CC3)cc2)cc1Nc1nccc(-c2cccnc2)n1 [Compound 13, 4-((4-(1H-Imidazol-1-yl)piperidin-1-yl)methyl)-N-(4-methyl-3-((4-(pyridin-3-yl)pyrimidin-2-yl)amino)phenyl)benzamide]",–,induced apoptosis in a dose-dependent manner,–,–,47.1,18.2 ± 1.9,32.5 ± 14.5,–,–,–,–,–,–,–,–,–,–,1.9,minimal changes; also recorded: reversal of resistance was not significant,–
"Cc1ccc(NC(=O)c2ccc(CN3CCC(n4cnnc4)CC3)cc2)cc1Nc1nccc(-c2cccnc2)n1 [Compound 14, 4-((4-(4H-1,2,4-Triazol-4-yl)piperidin-1-yl)methyl)-N-(4-methyl-3-((4-(pyridin-3-yl)pyrimidin-2-yl)amino)phenyl)benzamide]",–,inactive,–,–,36.1,> 50,> 50,–,–,–,–,–,–,–,–,–,–,–,–,–
